Laboratory results taken from patent publication US9623017B2 (priority 2014, dated 2017).

Columns and labels:
[1] = Solubility of the cocrystal in heptane; format: physicochemical
Description: A drug-in-adhesive transdermal patch of the invention may be manufactured using methods known in the art. The 4:3 naltrexone: 5-methyl-2-furaldehyde cocrystal particles may be incorporated into the drug-in-adhesive layer also using known methods such as melt blending. The 4:3 naltrexone: 5-methyl-2-furaldehyde cocrystal particles may be dispersed in a liquid in which the cocrystal is not soluble or only sparingly soluble (a “non-solvent”) and then added to a solution of the other drug-in-adhesive layer components in that same liquid. Alternatively, the 4:3 naltrexone: 5-methyl-2-furaldehyde cocrystal particles may be dispersed into the solution of the drug-in-adhesive components itself. Use of a non-solvent ensures that the cocrystal retains its crystalline form while forming the drug-in-adhesive layer. For the 4:3 naltrexone: 5-methyl-2-furaldehyde cocrystal, such a liquid will generally be a non-polar organic solvent. An example of such a solvent is heptane in which the 4:3 naltrexone: 5-methyl-2-furaldehyde cocrystal has a solubility of only 0.1 mg/mL at 5° C. and of 0.2 mg/mL at 50° C. Alternatively, the 4:3 naltrexone: 5-methyl-2-furaldehyde cocrystal particles may be incorporated into the drug-in-adhesive layer also using known methods such as melt blending.

[2] = Dynamic vapor sorption (DVS) analysis, Hiden IGAsorp; format: physicochemical
Protocol: Approximately 10 mg of sample was placed into a mesh vapor sorption balance pan and loaded into a Hiden IGAsorp by Hiden. The sample was subjected to a ramping profile from 40-90% relative humidity (RH) at 10% increments, maintaining the sample at each step until a stable weight had been achieved (99.5% step completion). After completion of the sorption cycle, the sample was dried using the same procedure to 0% RH the sample was then subsequently taken back to 40% RH using the same procedure.
A DVS analysis of the 4:3 naltrexone: 5-methyl-2-furaldehyde cocrystal was performed using Hiden IGAsorp method.

[3] = Skin flux evaluation, Franz Cell Diffusion method; format: in vitro ADME, human; details: film without lidocaine (n=7) vs patch with lidocaine, 32° C., 72-hour period
Protocol: The diffusion of lidocaine API and naltrexone from the 4:3 naltrexone: 5-methyl-2-furaldehyde cocrystal in the transdermal patch to the skin was studied using a Franz Cell Diffusion (FCD) method. In the method, transdermal patches were placed on top of heat-separated human cadaver skin. The receptor solution (0.01M phosphate buffer, pH 5.76) was analyzed for lidocaine and naltrexone content over time by HPLC using the methods discussed above. In one set of experiments the method used four transdermal patches (n=4) and was carried out at 32° C. […] In another set of experiments a similar film was prepared as above without lidocaine (Dow Medical Fluid 100-5%/Dow 7-4201-88%/NTX-Co-7%). NTX-Co transdermal flux (n=7) was measured through heat-separated human cadaver skin using Franz Cell Diffusion cells at 32° C.

4:3 naltrexone: 5-methyl-2-furaldehyde cocrystal
solubility in heptane ([1]; 5° C.): 100 µg/mL | solubility in heptane ([1]; 50° C.): 200 µg/mL | hygroscopicity (DVS) ([2]; DVS kinetic analysis): not hygroscopic | XRPD pattern of material reclaimed after DVS experiment ([2]; after DVS cycle, compared with FIG. 1): same XRPD pattern as in FIG. 1 | mass change (DVS) ([2]; ramping 40-90% RH, drying to 0% RH, back to 40% RH): < 3% | transdermal flux [3]: lower in the absence of lidocaine
